Assays:
[1] = system: Jily; assay: MTS proliferation assay; assay type: cell-based; conditions: 72 h
Summary of the method: (§1)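 Viability read-out is MTS absorbance at 492 nm after 3 h reagent incubation. It follows 72 h culture-condition treatment at four final concentrations (10, 3, 1, 0.3 μM), compounds delivered in medium holding max 5% DMSO.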

[2] = system: MRC5; assay: MTS proliferation assay; assay type: cell-based; conditions: MRC5, 72 h
Summary of the method: as §1

[3] = system: HeLa; assay: MTS proliferation assay; assay type: cell-based, human; conditions: 72 h
Summary of the method: as §1

[4] = system: Jurkat; assay: MTS proliferation assay; assay type: cell-based, human; conditions: 72 h
Summary of the method: as §1

[5] = Hoechst 33342 nuclear staining; assay type: cell-based; conditions: for Hoechst 33342 nuclear staining score, H460: H460 cells; for Hoechst 33342 nuclear staining score, HeLa: HeLa cells; for Hoechst 33342 nuclear staining score, Jily: Jily cells; for Hoechst 33342 nuclear staining score, Jurkat: Jurkat cells; for Hoechst 33342 nuclear staining score, MRC5: MRC5 cells;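 on all read-outs here: apoptotic nuclei scored 0 none 1 weak under 50% of cells 2 strong over 50% of cells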
Summary of the method: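 After a further 30 min incubation, plates were inspected on a standard inverted fluorescence microscope. The fraction of apoptotic nuclei and other apoptosis-specific morphology were scored as 0 for no activity, 1 for weak activity in less than 50% of the cells, and 2 for strong activity in more than 50% of the cells.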

Structure (SMILES)	IC50 [1] [nM]	Hoechst 33342 nuclear staining score, H460 ([5]; conc 0.1)	Hoechst 33342 nuclear staining score, H460 ([5]; conc 0.3)	Hoechst 33342 nuclear staining score, H460 ([5]; conc 1)	Hoechst 33342 nuclear staining score, H460 ([5]; conc 3)	Hoechst 33342 nuclear staining score, HeLa ([5]; conc 0.1)	Hoechst 33342 nuclear staining score, HeLa ([5]; conc 0.3)	Hoechst 33342 nuclear staining score, HeLa ([5]; conc 1)	Hoechst 33342 nuclear staining score, HeLa ([5]; conc 3)	Hoechst 33342 nuclear staining score, Jily ([5]; conc 0.1)	Hoechst 33342 nuclear staining score, Jily ([5]; conc 0.3)	Hoechst 33342 nuclear staining score, Jily ([5]; conc 1)	Hoechst 33342 nuclear staining score, Jily ([5]; conc 3)	Hoechst 33342 nuclear staining score, Jurkat ([5]; conc 0.1)	Hoechst 33342 nuclear staining score, Jurkat ([5]; conc 0.3)	Hoechst 33342 nuclear staining score, Jurkat ([5]; conc 1)	Hoechst 33342 nuclear staining score, Jurkat ([5]; conc 3)	Hoechst 33342 nuclear staining score, MRC5 ([5]; conc 0.1)	Hoechst 33342 nuclear staining score, MRC5 ([5]; conc 0.3)	Hoechst 33342 nuclear staining score, MRC5 ([5]; conc 1)	other results
COc1ccc(S(=O)(=O)n2cc(-c3cncc(C(N)=O)c3)cc2-c2cc(OC)c(OC)c(OC)c2)cc1 [Example 104, 4-(3-Aminocarbonylpyrid-5-yl)-1-p-methoxyphenylsulfonyl-2-(3,4,5-trimethoxyphenyl)-pyrrole]	< 200	0	2 (strong activity comprising more than 50% of the cells)	2 (strong activity comprising more than 50% of the cells)	2 (strong activity comprising more than 50% of the cells)	0	2 (strong activity comprising more than 50% of the cells)	2 (strong activity comprising more than 50% of the cells)	2 (strong activity comprising more than 50% of the cells)	0	2 (strong activity comprising more than 50% of the cells)	2 (strong activity comprising more than 50% of the cells)	2 (strong activity comprising more than 50% of the cells)	0	2 (strong activity comprising more than 50% of the cells)	2 (strong activity comprising more than 50% of the cells)	2 (strong activity comprising more than 50% of the cells)	0	1 (weak activity comprising less than 50% of the cells)	2 (strong activity comprising more than 50% of the cells)	IC50 ([2]; Homo sapiens): < 200 nM; IC50 ([3]; Homo sapiens): < 1000 nM; IC50 ([4]; Homo sapiens): < 200 nM; Hoechst 33342 nuclear staining score, MRC5 ([5]; conc 3): 2 (strong activity comprising more than 50% of the cells); Hoechst 33342 nuclear staining score, PBLs ([5]; conc 0.1): 0; Hoechst 33342 nuclear staining score, PBLs ([5]; conc 0.3): 0; Hoechst 33342 nuclear staining score, PBLs ([5]; conc 1): 0; Hoechst 33342 nuclear staining score, PBLs ([5]; conc 3): 0
COc1ccc(S(=O)(=O)n2cc(-c3cncc(C(N)=O)c3)cc2-c2cc(OC)ccc2OC)cc1 [Example 105]	< 1000	0	0	0	2 (strong activity comprising more than 50% of the cells)	0	0	0	2 (strong activity comprising more than 50% of the cells)	0	0	2 (strong activity comprising more than 50% of the cells)	2 (strong activity comprising more than 50% of the cells)	0	0	2 (strong activity comprising more than 50% of the cells)	2 (strong activity comprising more than 50% of the cells)	0	0	0	IC50 [2]: > 1000 nM; IC50 [3]: > 1000 nM; IC50 [4]: < 1000 nM; Hoechst 33342 nuclear staining score, MRC5 ([5]; conc 3): 1 (weak activity comprising less than 50% of the cells); Hoechst 33342 nuclear staining score, PBLs ([5]; conc 0.1): 0; Hoechst 33342 nuclear staining score, PBLs ([5]; conc 0.3): 0; Hoechst 33342 nuclear staining score, PBLs ([5]; conc 1): 0; Hoechst 33342 nuclear staining score, PBLs ([5]; conc 3): 0
COc1ccc(S(=O)(=O)n2cc(-c3cncc(C(N)=O)c3)cc2-c2ccc(OC)cc2OC)cc1 [Example 106]	> 1000	0	0	1 (weak activity comprising less than 50% of the cells)	2 (strong activity comprising more than 50% of the cells)	0	0	1 (weak activity comprising less than 50% of the cells)	2 (strong activity comprising more than 50% of the cells)	0	0	1 (weak activity comprising less than 50% of the cells)	2 (strong activity comprising more than 50% of the cells)	0	0	2 (strong activity comprising more than 50% of the cells)	2 (strong activity comprising more than 50% of the cells)	0	0	0	IC50 [2]: > 1000 nM; IC50 [3]: > 1000 nM; IC50 [4]: > 1000 nM; Hoechst 33342 nuclear staining score, MRC5 ([5]; conc 3): 1 (weak activity comprising less than 50% of the cells); Hoechst 33342 nuclear staining score, PBLs ([5]; conc 0.1): 0; Hoechst 33342 nuclear staining score, PBLs ([5]; conc 0.3): 0; Hoechst 33342 nuclear staining score, PBLs ([5]; conc 1): 0; Hoechst 33342 nuclear staining score, PBLs ([5]; conc 3): 0
COc1ccc(S(=O)(=O)n2cc(-c3cncc(C(N)=O)c3)cc2-c2ccccc2OC)cc1 [Example 107]	< 1000	0	0	1 (weak activity comprising less than 50% of the cells)	2 (strong activity comprising more than 50% of the cells)	0	0	0	2 (strong activity comprising more than 50% of the cells)	0	0	2 (strong activity comprising more than 50% of the cells)	2 (strong activity comprising more than 50% of the cells)	0	0	2 (strong activity comprising more than 50% of the cells)	2 (strong activity comprising more than 50% of the cells)	0	0	0	IC50 [2]: > 1000 nM; IC50 [3]: > 1000 nM; IC50 [4]: < 1000 nM; Hoechst 33342 nuclear staining score, MRC5 ([5]; conc 3): 0; Hoechst 33342 nuclear staining score, PBLs ([5]; conc 0.1): 0; Hoechst 33342 nuclear staining score, PBLs ([5]; conc 0.3): 0; Hoechst 33342 nuclear staining score, PBLs ([5]; conc 1): 0; Hoechst 33342 nuclear staining score, PBLs ([5]; conc 3): 0

Source: patent US7612064B2, “Sulfopyrroles” (Takeda Pharmaceutical Company Limited, priority 2003, dated 2009)
